Measured values from US20200207734A1, “HETEROCYCLIC COMPOUND AND USE THEREOF” (Takeda Pharmaceutical Company Limited, priority 2017, published 2020).

What was measured:
[1] = target: T1, human orexin type 2 receptor (Homo sapiens, UniProt O43614); assay: Measurement of orexin type 2 receptor agonist activity (calcium fluorescence, CHO cells expressing hOX2R); type: cell-based; conditions: test compound 3 μM; CHO cells expressing human OX2 receptor; DMSO = 0%, orexin A (human) = 100%
T1 construct: human orexin type 2 receptor cDNA was inserted into pcDNA3.1(+) plasmid vector (Invitrogen); expressed in transfected cells
T1 sequence (O43614 1-444): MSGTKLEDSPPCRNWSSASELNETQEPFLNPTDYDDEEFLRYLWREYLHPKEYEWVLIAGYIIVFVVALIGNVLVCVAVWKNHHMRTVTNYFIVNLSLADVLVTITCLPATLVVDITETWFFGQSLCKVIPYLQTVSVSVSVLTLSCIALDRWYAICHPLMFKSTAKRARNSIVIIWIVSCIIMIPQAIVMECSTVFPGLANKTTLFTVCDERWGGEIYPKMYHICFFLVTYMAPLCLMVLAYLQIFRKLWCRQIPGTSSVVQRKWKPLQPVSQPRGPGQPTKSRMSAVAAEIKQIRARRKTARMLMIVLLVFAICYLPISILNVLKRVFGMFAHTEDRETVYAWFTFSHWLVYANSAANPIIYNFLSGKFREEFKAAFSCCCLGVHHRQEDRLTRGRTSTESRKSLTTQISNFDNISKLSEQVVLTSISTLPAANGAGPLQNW
Outline: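 CHO-dhfr cells stably expressing hOX2R, loaded with Fluo-4 AM in HBSS/20 mM HEPES/0.1% BSA with probenecid, then given test compound. Calcium fluorescence was read for about 2 min 40 sec. Activity (%) was scaled between DMSO (0%) and 10 nM final human orexin A (100%).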

cynomolgus monkeys = assay: Evaluation of wake-promoting effects in cynomolgus monkeys (EEG/EMG/EOG); type: in vivo; conditions: Macaca fascicularis, sc, 4 h; 1 mg/kg, s.c., cynomolgus monkeys, administered at ZT12; read-out: Wakefulness time (% of vehicle treatment) (Mean, n = 1-2)
Experimental: The wake-promoting effects were evaluated by measuring the electroencephalogram (EEG), electromyogram (EMG) and electrooculogram (EOG) in cynomolgus monkeys. Under isoflurane anesthesia (1-5%, Pfizer Japan Inc., Tokyo, Japan), male cynomolgus monkeys (3-5 years old, Hamri Co., Ltd., Ibaraki, Japan) were surgically implanted with radio-telemetry transmitters (TL10M3-D70-EEE, Data Sciences International Inc., MN, USA). EEG leads were stereotaxically positioned at the parietal area and secured to the cranium with stainless-steel screws in contact with the dura. […] Bilateral EMG leads were implanted into the back cervical muscles. After the surgery, each monkey was given penicillin (100,000 units/head, i.m., Meiji Seika Pharma Co., Ltd., Tokyo, Japan), buprenorphine (0.02 mg/kg, i.m., Otsuka Pharmaceutical Co., Ltd., Tokyo, Japan) and prednisolone (1 mg/kg, s.c., Kyoritsu Seiyaku Co., Ltd., Tokyo, Japan) daily for one week. After at least a 1-month recovery period in home cages, the monkeys were habituated to the recording chamber (an acrylic cage 60W×55D×75H (cm)) located in a soundproof, electrically shielded room. After we confirmed that monkeys slept sufficiently in the experimental room, cortical EEG, EMG and EOG signals were recorded using Dataquest ART software (Data Sciences International Inc., MN, USA). The signals were semi automatically scored in 20 sec epochs by a sleep scoring system (SleepSign, Kissei Comtec Co., Ltd., Nagano, Japan). This preliminary scoring was visually inspected and corrected if necessary. Test compound (10 mg/kg, Table 4-1) suspended in 0.5% methylcellulose aqueous solution, or vehicle (i.e., 0.5% methylcellulose aqueous solution) was administered orally (p.o.) to monkeys at zeitgeber time 12 (ZT12) in a volume of 5 mL/kg body weight in a cross-over design. EEG, EMG and EOG recordings were performed for 4 h after the compound administration/treatments. The time spent in wakefulness for 4 h after administration (% of vehicle treatment) was calculated by using SleepSign. Test compound (1 mg/kg, Table 4-2) dissolved in a mixed solution comprising 5% DMSO, 5% Cremophor EL, 20% PEG400 and 70% soluplus (1% (w/v)), or vehicle (i.e., a mixed solution comprising 5% DMSO, 5% Cremophor EL, 20% PEG400 and 70% soluplus (1% (w/v))) was administered subcutaneously (s.c.) to monkeys at ZT12 in a volume of 0.5 mL/kg body weight in a pre-post design. EEG, EMG and EOG recordings were performed for 4 h after the compound administration/treatments. The time spent in wakefulness for 4 h after administration (% of vehicle treatment) was calculated by using SleepSign.

OX2R agonist activity (3 μM, %) [1] [%]	Structure (SMILES)	response vs control in vivo at 1 mg/kg (cynomolgus monkeys) [%]
102	CCS(=O)(=O)N[C@H]1CCN(C(=O)N(C)C)[C@H]1Cc1cccc(-c2cccc(F)c2)c1F [Example 486, (2S,3S)-2-((2,3′-difluorobiphenyl-3-yl)methyl)-3-((ethylsulfonyl)amino)-N,N-dimethylpyrrolidine-1-carboxa-mide]	328
104	CS(=O)(=O)N[C@H]1CCN(C(=O)N2CCC2)[C@H]1Cc1cccc(-c2cccc(F)c2)c1F [Example 485, N-((2S,3S)-1-(azetidin-1-ylcarbonyl)-2-((2,3′-difluorobiphenyl-3-yl)methyl)pyrrolidin-3-yl)methanesulfonamide]	449
104	CCS(=O)(=O)N[C@H]1CCN(C(=O)N2CCC2)[C@H]1Cc1cccc(-c2ccccc2)c1F [Example 456, N-{(2S,3S)-1-(azetidine-1-carbonyl)-2-[(2-fluoro[1,1′-biphenyl]-3-yl)methyl]pyrrolidin-3-yl}ethanesulfonamide]	446

Further lines, the compound ahead of its results:

Structure (SMILES)	OX2R agonist activity (3 μM, %) [1] [%]	response vs control in vivo at 1 mg/kg (cynomolgus monkeys) [%]
CCS(=O)(=O)N[C@H]1CCN(C(=O)N(C)OC)[C@H]1Cc1cccc(-c2cccc(F)c2)c1 [Example 474, (2S,3S)-3-[(ethanesulfonyl)amino]-2-[(3′-fluoro[1,1′-biphenyl]-3-yl)methyl]-N-methoxy-N-methylpyrro-lidine-1-carboxamide]	109	329
CN(C)C(=O)N1CC[C@H](NS(=O)(=O)N(C)C)[C@@H]1Cc1cccc(-c2cc(F)cc(F)c2)c1F [Example 476, (2S,3S)-3-[(dimethylsulfamoyl)amino]-N,N-dimethyl-2-[(2,3′,5′-trifluoro[1,1′-biphenyl]-3-yl)methyl]pyrrolidine-1-carboxamide]	103	392
CCS(=O)(=O)N[C@H]1CCN(C(=O)N(C)C)[C@H]1Cc1cccc(-c2cc(F)cc(F)c2)c1F [Example 487, (2S,3S)-3-((ethylsulfonyl)amino)-N,N-dimethyl-2-((2,3′,5′-trifluorobi-phenyl-3-yl)methyl)pyrrolidine-1-carboxamide]	104	355
CN(C)C(=O)N1CC[C@H](NS(=O)(=O)N(C)C)[C@@H]1Cc1cccc(-c2ccccc2)c1F [Example 475, (2S,3S)-3-[(dimethylsulfamoyl)amino]-2-[(2-fluoro[1,1′-biphenyl]-3-yl)methyl]-N,N-dimethyl-pyrrolidine-1-carboxamide]	104	410
CCS(=O)(=O)N[C@H]1CCN(C(=O)N(C)OC)[C@H]1Cc1cccc(-c2ccccc2)c1 [Example 407, (2S,3S)-2-(biphenyl-3-ylmethyl)-3-((ethylsulfonyl)amino)-N-methoxy-N-methylpyrrolidine-1-carboxamide]	107	391
